We go through 34 compounds from PMC6152156 (Molecules : A Journal of Synthetic Chemistry and Natural …, 2017).

SMILES strings stand for the structures. Read-outs that look alike come from different tables or passages of the source. A value given as a limit tells only on which side of the number the result lay.

Assay [1] has as its target T1, AChE (Rattus norvegicus, UniProt P37136).
T1 construct: AChE was derived from the SD rat brains by homogenizing the brain with 20-fold saline solution; from tissue; host or cells: SD rat brain homogenate (supernatant after 800 x g)
Briefly: In vitro AChE inhibitory assay (Ellman's method). It counts as biochemical. The procedure: The AChE inhibitory activity of DL0410 derivatives was assessed by determining the hydrolysis product of Acetylthiocholine iodide (ASCh) using the Ellman’s method. 5,5′-Dithiobis (2-nitrobenzoic acid) (DTNB), and the substrate ASCh were purchased from Sigma Aldrich. AChE was derived from the SD rat brains by homogenizing the brain with 20-fold saline solution, and then centrifuged at 800× g for 20 min at 4 °C. To acquire the inhibition of AChE activity, five serial dilutions of samples were measured. A Spectra Max M5 microplate reader (Molecular Devices, Sunnyvale, CA, USA) was utilized for the assay for AChE reaction system with 96-well plates in 0.05 M phosphate-buffered solution (PBS). The reaction system includes 10 μL sample, 20 μL AChE solution, 60 μL 3.75 mM ASCh, and 80 μL 0.25 mg/mL DTNB. It took 60 min at 37 °C for incubation, and the absorbance intensity of AChE reaction system was quantified at 412 nm.
Background: DTNB colorimetry detects thiols as they appear.

The target of assay [2] is T2, BuChE (Homo sapiens, UniProt P06276).
T2 construct: BuChE was obtained from human plasma (purchased from Beijing Red Cross Blood Center China); tissue Beijing Red Cross Blood Center China; host or cells: human plasma, diluted 200-fold with 0.05 M PBS
The assay can be described thus: In vitro BuChE inhibitory assay (Ellman-type, human plasma). The settings on record: BuChE from human plasma, BuSCh substrate, 60 min, 37 °C. It counts as biochemical. The procedure: BuChE was obtained from human plasma (purchased from Beijing Red Cross Blood Center China). Before utilization, human plasma was diluted 200-fold with 0.05 M PBS. Five serial dilutions of samples are determined to obtain BuChE inhibitory activity. The BuChE reaction system is similar to the assay above, including 10 μL samples, 40 μL diluted plasma sample, 70 μL 7.5 mM S-butyrylthiocholine (BuSCh), and 80 μL 0.25 mg/mL DTNB. After incubation at 37 °C for 60 min, the absorbance intensity of the system was measured at wavelength 412 nm.

Setting [3] is: AChE from SD rat brain homogenate, ASCh substrate, 60 min, 37 °C, read-out: IC50(μM) AChE.

T2 sequence (P06276 29-602): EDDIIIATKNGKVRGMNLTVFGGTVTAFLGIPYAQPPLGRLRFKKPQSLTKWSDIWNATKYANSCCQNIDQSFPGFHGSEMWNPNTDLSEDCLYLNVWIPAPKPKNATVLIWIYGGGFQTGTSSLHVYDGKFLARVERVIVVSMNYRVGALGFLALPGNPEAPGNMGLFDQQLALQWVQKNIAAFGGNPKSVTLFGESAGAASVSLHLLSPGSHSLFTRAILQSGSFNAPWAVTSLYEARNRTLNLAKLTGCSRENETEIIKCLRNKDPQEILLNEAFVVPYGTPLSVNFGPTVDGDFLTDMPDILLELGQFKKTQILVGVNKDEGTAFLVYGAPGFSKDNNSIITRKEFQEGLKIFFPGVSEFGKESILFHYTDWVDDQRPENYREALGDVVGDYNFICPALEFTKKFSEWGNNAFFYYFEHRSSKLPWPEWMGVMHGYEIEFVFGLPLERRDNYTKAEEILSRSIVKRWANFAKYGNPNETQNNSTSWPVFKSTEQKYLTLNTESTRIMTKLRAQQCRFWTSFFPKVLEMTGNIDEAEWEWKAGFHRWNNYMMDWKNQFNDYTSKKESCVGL
T1 sequence (P37136 32-614): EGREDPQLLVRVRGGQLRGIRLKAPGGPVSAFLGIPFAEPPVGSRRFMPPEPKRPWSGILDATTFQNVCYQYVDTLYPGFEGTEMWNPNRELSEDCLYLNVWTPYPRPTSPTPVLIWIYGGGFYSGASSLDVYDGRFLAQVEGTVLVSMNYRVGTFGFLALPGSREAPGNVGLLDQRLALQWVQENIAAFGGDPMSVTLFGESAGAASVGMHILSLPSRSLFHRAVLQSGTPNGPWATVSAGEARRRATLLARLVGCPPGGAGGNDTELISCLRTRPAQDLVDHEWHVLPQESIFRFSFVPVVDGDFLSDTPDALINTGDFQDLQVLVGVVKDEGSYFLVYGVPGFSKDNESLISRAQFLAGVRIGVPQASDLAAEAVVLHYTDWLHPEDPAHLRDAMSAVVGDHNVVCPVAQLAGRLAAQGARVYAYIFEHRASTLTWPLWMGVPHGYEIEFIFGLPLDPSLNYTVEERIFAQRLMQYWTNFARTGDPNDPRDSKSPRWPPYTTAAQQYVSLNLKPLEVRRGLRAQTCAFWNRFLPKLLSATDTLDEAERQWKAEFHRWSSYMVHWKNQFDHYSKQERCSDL

As for `O=C(c1ccc(-c2ccc(C(=O)N3CCCCC3)cc2)cc1)N1CCCCC1` [Compound 1-2], the IC50 (commonly the midpoint of a concentration-inhibition curve) is 0.84 µM in assay [1] (setting [3]) and 2.22 µM in assay [2] (read-out: IC50(μM) BuChE).
In the case of `O=C(CCCN1CCCCC1)c1ccc(-c2ccc(C(=O)CCN3CCCCC3)cc2)cc1` [Compound 1-5], the IC50 in assay [1] (setting [3]) was 0.41 µM; in assay [2] (read-out: IC50(μM) BuChE) it was 1.88 µM.
The like results for `O=C(CCN1CCCCC1)c1ccc(-c2ccc(C(=O)CN3CCCCC3)cc2)cc1` [Compound 1-6] were, in that order, 3.32 µM and 4.87 µM.
As for `CC1CCN(CC(=O)c2ccc(-c3ccc(C(=O)CN4CCC(C)CC4)cc3)cc2)CC1` [Compound 1-7], the IC50 worked out at 49.1 µM in assay [1] (setting [3]) and 36.6 µM in assay [2] (read-out: IC50(μM) BuChE).
For `CN(C)CCC(=O)c1ccc(-c2ccc(C(=O)CCN(C)C)cc2)cc1` [Compound 1-8], in assay [2] (read-out: IC50(μM) BuChE), the half-maximal inhibitory concentration (IC50) was below 1 µM.
Consider `CCN(CC)CCC(=O)c1ccc(-c2ccc(C(=O)CCN(CC)CC)cc2)cc1` [Compound 1-9], for which the IC50 in assay [2] (read-out: IC50(μM) BuChE) was below 1 µM.
Consider `O=C(CCN1CCOCC1)c1ccc(-c2ccc(C(=O)CCN3CCOCC3)cc2)cc1` [Compound 1-15], for which the IC50 in assay [2] (read-out: IC50(μM) BuChE) was below 1 µM.
With `O=C(CCNC1CCCCC1)c1ccc(-c2ccc(C(=O)CCNC3CCCCC3)cc2)cc1` [Compound 1-16], the IC50 worked out at 2.15 µM in assay [1] (setting [3]) and 1.91 µM in assay [2] (read-out: IC50(μM) BuChE).
For the compound `CN(CCC(=O)c1ccc(-c2ccc(C(=O)CCN(C)Cc3ccccc3)cc2)cc1)Cc1ccccc1` [Compound 1-17], the IC50 came to 3.33 µM in assay [1] (setting [3]) and 6.56 µM in assay [2] (read-out: IC50(μM) BuChE).
In the case of `COc1ccc2[nH]cc(CCNCC(=O)c3ccc(-c4ccc(C(=O)CNCCc5c[nH]c6ccc(OC)cc56)cc4)cc3)c2c1` [Compound 1-18], the half-maximal inhibitory concentration (IC50) in assay [1] (setting [3]) was 9.52 µM; in assay [2] (read-out: IC50(μM) BuChE), above 200 µM.
Regarding `O=C(CCN1CCC(N2CCCCC2)CC1)c1ccc(-c2ccc(C(=O)CCN3CCC(N4CCCCC4)CC3)cc2)cc1` [Compound 1-19], the figures for the concentration for half-maximal inhibition (IC50) in assay [1] (setting [3]) and in assay [2] (read-out: IC50(μM) BuChE) were 0.25 µM and above 200 µM, respectively.
For `O=C(CN1CCCCC1)c1ccc(CCc2ccc(C(=O)CN3CCCCC3)cc2)cc1` [Compound 2-1], in assay [1] (setting [3]), the IC50 came out at 75.5 µM.
For the compound `O=C(CCN1CCCCC1)c1ccc(CCc2ccc(C(=O)CCN3CCCCC3)cc2)cc1` [Compound 2-3], in assay [2] (read-out: IC50(μM) BuChE), the 50% inhibitory concentration (IC50) was 3.41 µM.
As for `O=C(CCCCN1CCC1)c1ccc(CCc2ccc(C(=O)CCCCN3CCC3)cc2)cc1` [Compound 2-6], the IC50 is 12.2 µM in assay [1] (setting [3]) and above 200 µM in assay [2] (read-out: IC50(μM) BuChE).
On to `CN(C)CCCCC(=O)c1ccc(CCc2ccc(C(=O)CCCCN(C)C)cc2)cc1` [Compound 2-10], for which the IC50 in assay [1] (setting [3]) was 3.96 µM; in assay [2] (read-out: IC50(μM) BuChE), 2.77 µM.
For `O=C(CCN1CCCCC1)c1ccc(Cc2ccc(C(=O)CCN3CCCCC3)cc2)cc1` [Compound 3-1], the figures for the IC50 in assay [1] (setting [3]) and in assay [2] (read-out: IC50(μM) BuChE) were 4.11 µM and 4.2 µM, respectively.
In the case of `O=C(CCN1CCOCC1)c1ccc(Cc2ccc(C(=O)CCN3CCOCC3)cc2)cc1` [Compound 3-2], the half-maximal inhibitory concentration (IC50) in assay [1] (setting [3]) worked out at 7.09 µM; in assay [2] (read-out: IC50(μM) BuChE), 7.65 µM.
The like results for `CN1CCN(CC(=O)c2ccc(Cc3ccc(C(=O)CN4CCN(C)CC4)cc3)cc2)CC1` [Compound 3-3] were, in that order, 48.5 µM and 40 µM.
For `CN1CCN(CCC(=O)c2ccc(Cc3ccc(C(=O)CCN4CCN(C)CC4)cc3)cc2)CC1` [Compound 3-4], the half-inhibitory concentration (IC50) turned out to be 7.55 µM in assay [1] (setting [3]) and 24.4 µM in assay [2] (read-out: IC50(μM) BuChE).
As for `CN(C)CCC(=O)c1ccc(Cc2ccc(C(=O)CCN(C)C)cc2)cc1` [Compound 3-5], the concentration for half-maximal inhibition (IC50) in assay [1] (setting [3]) stood at 3.32 µM; in assay [2] (read-out: IC50(μM) BuChE), 1.72 µM.
Take `CN(C)CCC(=O)c1ccc(C(C)(C)c2ccc(C(=O)CCN(C)C)cc2)cc1` [Compound 4-1]: the IC50 stood at 4.89 µM in assay [1] (setting [3]) and 6 µM in assay [2] (read-out: IC50(μM) BuChE).
`CN(C)CC(=O)c1ccc(C(C)(C)c2ccc(C(=O)CN(C)C)cc2)cc1` [Compound 4-2]: the half-maximal inhibitory concentration (IC50) was determined as 54.4 µM in assay [1] (setting [3]) and 5.95 µM in assay [2] (read-out: IC50(μM) BuChE).
Consider `CC(C)(c1ccc(C(=O)CCN2CCCCC2)cc1)c1ccc(C(=O)CCN2CCCCC2)cc1` [Compound 4-3], for which the results for the half-maximal inhibitory concentration (IC50) in assay [1] (setting [3]) and in assay [2] (read-out: IC50(μM) BuChE) were 3.07 µM and 3.09 µM, respectively.
Consider `CC(C)(c1ccc(C(=O)CN2CCCCC2)cc1)c1ccc(C(=O)CN2CCCCC2)cc1` [Compound 4-4], for which the values for the IC50 in assay [1] (setting [3]) and in assay [2] (read-out: IC50(μM) BuChE) were 17.4 µM and 2.93 µM, respectively.
For `CC(C)(c1ccc(C(=O)CCN2CCOCC2)cc1)c1ccc(C(=O)CCN2CCOCC2)cc1` [Compound 4-5], the half-inhibitory concentration (IC50) in assay [1] (setting [3]) stood at 15.7 µM; in assay [2] (read-out: IC50(μM) BuChE), 16.3 µM.
As for `O=C(CCN1CCCCC1)c1ccc(Oc2ccc(C(=O)CCN3CCCCC3)cc2)cc1` [Compound 5-1], the values for the IC50 in assay [1] (setting [3]) and in assay [2] (read-out: IC50(μM) BuChE) were 0.89 µM and 5.68 µM, respectively.
The like results for `O=C(CCN1CCCCC1)c1ccc(Sc2ccc(C(=O)CCN3CCCCC3)cc2)cc1` [Compound 5-2] were, in that order, 3.89 µM and 3.44 µM.
For `O=C(CCN1CCCCC1)c1ccc([S+]([O-])c2ccc(C(=O)CCN3CCCCC3)cc2)cc1` [Compound 5-3], the concentration for half-maximal inhibition (IC50) in assay [1] (setting [3]) was 14.1 µM; in assay [2] (read-out: IC50(μM) BuChE), above 200 µM.
As for `O=C(CCN1CCCCC1)c1ccc2sc3ccc(C(=O)CCN4CCCCC4)cc3c2c1` [Compound 6-2], the results for the IC50 in assay [1] (setting [3]) and in assay [2] (read-out: IC50(μM) BuChE) were 2.03 µM and 1.71 µM, respectively.
Consider `C=C(CN1CCCCC1)C(=O)c1ccc(-c2ccc(C(=O)C(=C)CN3CCCCC3)cc2)cc1` [Compound 7-2], for which the IC50 in assay [1] (setting [3]) was 17.1 µM; in assay [2] (read-out: IC50(μM) BuChE) it was 1.55 µM.
As for `CCN(C)C(=O)Oc1ccc(-c2ccc(OC(=O)N(C)CC)cc2)cc1` [Compound 7-3], the concentration for half-maximal inhibition (IC50) in assay [1] came to 34.1 µM; in assay [2] (IC50(μM) BuChE) it was 0.06 µM.
Turning to `O=C(COCCN1CCCCC1)c1ccc(-c2ccc(C(=O)OCCN3CCCCC3)cc2)cc1` [Compound 7-4], the IC50 in assay [1] (setting [3]) is 18.5 µM; in assay [2] (read-out: IC50(μM) BuChE), above 200 µM.
As to `CCN(C)C(=O)Oc1ccc(-c2ccc(C(=O)CCN3CCCCC3)cc2)cc1` [Compound 7-5], the IC50 in assay [1] came to 3.35 µM; in assay [2] (IC50(μM) BuChE), 0.2 µM.
`O=C(CCN1CCCCC1)c1ccc2c(c1)c1cc(C(=O)CCN3CCCCC3)ccc1n2C(=O)CCN1CCCCC1` [Compound 7-7]: the half-inhibitory concentration (IC50) was 1.42 µM in assay [1] (setting [3]) and 4.79 µM in assay [2] (read-out: IC50(μM) BuChE).
